Measurements published in PMC12381781, “Structural and functional insights into the selective inhibition of mutant tau aggregation by purpurin and oleocanthal in frontotemporal dementia” (Protein Science : A Publication of the Protein Society, 2025).
“Also recorded” adds a separate entry of the source.

Key:
R2R3 (V287I) tau peptide = R2R3 (V287I) tau peptide (Homo sapiens, UniProt P10636, V604I); assay: ThT aggregation assay of monomeric R2R3 (V287I) peptide; type: biochemical; conditions: for ThT-stained aggregates, confocal imaging: R2R3 V287I, compound 10 μM, end of ThT assay
Method: (§1) The aggregation kinetics of tau peptides were monitored using a ThT assay. A 40 μL reaction mixture containing 15 μM ThT (Sigma‐Aldrich, Cat. # T3516‐5G) and 50 μM peptide in the absence (control) or presence of 0.1 μM, 1 μM, and 10 μM PUR or OLC was prepared on ice in aggregation buffer (20 mM Tris [pH 7.4], 100 mM NaCl, 1 mM ethylenediaminetetraacetic acid [EDTA]) containing 5 μM heparin (Sigma‐Aldrich, Cat. #H4784). dithiothreitol (DTT) was excluded to avoid its differential effects on the aggregation kinetics of tau peptides containing Cys291 or Cys322 and to prevent peroxide generation by redox‐active compounds like PUR, which can lead to oxidative artifacts and false‐positive inhibition signals, as reported in our previous study (Annadurai, Malina, Salmona, et al., [2022]). This mixture was then dispensed into a clear‐bottom, black 384‐well ViewPlate (Revvity, Waltham, MA, United States; Part # 6007460) and sealed with a TopSealA‐PLUS (Revvity) to prevent evaporation.
(§2) Aggregation was monitored using EnSpire Multimode Plate Reader (Revvity) at 37°C with constant agitation (1000 rpm). To minimize condensation, the upper heater temperature was set to 2°C higher than the lower heater temperature. ThT fluorescence (ThT—λ ex: 460–490 nm and λem: 500–550 nm) was recorded every 5–10 min for 48 h.
(§3) ThT fluorescence curves were fitted to a sigmoidal function in GraphPad Prism (version 10, San Diego, CA, USA) using the following equation:
(§4) Y=Top/1+expV50–X/Slope , where Y is the ThT fluorescence intensity, X is time (h), Top is the maximum fluorescence intensity, V50 is the time to reach 50% of Top, and Slope describes the steepness of the aggregation transition. Baseline fluorescence at the start of the measurements was relatively low across samples and was not separately fitted. In samples showing early increases in fluorescence, the aggregation trajectory was modeled directly without introducing an independent baseline parameter.
(§5) The V50 value obtained from each replicate was used as the aggregation t 1/2 for statistical analysis.
(§6) To evaluate the effect of compounds on the extent of aggregation, the AUC was calculated for each replicate ThT fluorescence curve using GraphPad Prism. AUC values were then normalized to the mean AUC of the untreated control group and expressed as “aggregation (% of control),” serving as an indirect and comparative measure of fibril formation.
Figure S11. Confocal imaging of ThT-stained aggregates formed in the presence of PUR and OLC (corresponding to Figure 3). […] ThT fluorescence was acquired using a Yokogawa Cell Voyager 7000S high-content imaging system equipped with a 20× objective (Ex: 460–490 nm, Em: 500–550 nm) and analyzed with Signals Image Artist (Revvity). […]

R2R3 (N279K) tau peptide = R2R3 (N279K) tau peptide (Homo sapiens, UniProt P10636, N596K); assay: ThT aggregation assay of monomeric R2R3 (N279K) peptide; type: biochemical; conditions: for ThT-stained aggregates, confocal imaging: R2R3 N279K, end of ThT assay
Method: as §1, §2, §3, §4, §5, §6
Figure S11. Confocal imaging of ThT-stained aggregates formed in the presence of PUR and OLC (corresponding to Figure 3). At the end of the ThT aggregation assay, reaction mixtures containing WT or mutant R2R3 tau peptides (P301L, V287I, N279K), incubated in the absence (CTL) or presence of 10 µM PUR or OLC, were collected from assay wells, embedded in 0.05% low-melting agarose, and imaged. ThT fluorescence was acquired using a Yokogawa Cell Voyager 7000S high-content imaging system equipped with a 20× objective (Ex: 460–490 nm, Em: 500–550 nm) and analyzed with Signals Image Artist (Revvity). […] Scale bar: 20 μm.

Tau Biosensor cells = assay: MTS cytotoxicity assay, Tau Biosensor cells; type: cell-based; conditions: 0-100 µM, 72 h
Method: Figure S16. Cytotoxic activity of PUR and OLC. Tau Biosensor and CCRF-CEM (human leukemic lymphoblast) cells were treated with increasing concentrations (0-100 µM) of PUR and OLC for 72 h. Cell viability was then assessed using the MTS assay. CCRF-CEM (human leukemic lymphoblasts) cells, known for their high sensitivity to cytotoxic agents ^1, were used as positive controls. […] Calculated IC50 values are indicated in the graphs. Mean ± SEM (n = 3).

Chain of R2R3 (V287I) tau peptide (P10636 592-653 V604I): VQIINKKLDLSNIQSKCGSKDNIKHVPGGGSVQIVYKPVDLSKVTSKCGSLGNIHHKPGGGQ
Chain of R2R3 (N279K) tau peptide (P10636 592-653 N596K): as the sequence (P10636 592-653 V604I) above, with N5K, I13V counted along it

Row | Structure (SMILES) | aggregation (% of control), AUC of ThT fluorescence (R2R3 (V287I) tau peptide; R2R3 V287I 50 μM, compound 0.1 μM) | ThT-stained aggregates, confocal imaging (R2R3 (V287I) tau peptide) | aggregation (% of control), AUC of ThT fluorescence (R2R3 (N279K) tau peptide; R2R3 N279K 50 μM, compound 0.1 μM) | aggregation (% of control), AUC of ThT fluorescence (R2R3 (N279K) tau peptide; R2R3 N279K 50 μM, compound 1 μM) | aggregation, ThT fluorescence (R2R3 (N279K) tau peptide; R2R3 N279K 50 μM, compound 10 μM) | ThT-stained aggregates, confocal imaging (R2R3 (N279K) tau peptide; compound 10 μM) | cytotoxicity, cell viability (MTS) (Tau Biosensor cells) | remaining activity at 0.1 µM (R2R3 (V287I) tau peptide; R2R3 V287I 50 μM, compound 0.1 μM, read-out: aggregation (% of control), AUC of ThT fluorescence) | remaining activity at 0.1 µM (R2R3 (N279K) tau peptide; R2R3 N279K 50 μM, compound 0.1 μM, read-out: aggregation (% of control), AUC of ThT fluorescence) | remaining activity at 1 µM (R2R3 (N279K) tau peptide; R2R3 N279K 50 μM, compound 1 μM, read-out: aggregation (% of control), AUC of ThT fluorescence)
1 | C/C=C(/C=O)[C@@H](CC=O)CC(=O)OCCc1ccc(O)cc1 [OLC, oleocanthal] | 71% | marked reduction in ThT signal | 74% | 61% | complete aggregation suppression | marked reduction in ThT signal | neither PUR nor OLC was cytotoxic; also recorded: non‐toxic | – | – | –
2 | O=C1c2ccccc2C(=O)c2c(O)c(O)cc(O)c21 [PUR, purpurin] | – | marked reduction in ThT signal | – | – | – | marked reduction in ThT signal | neither PUR nor OLC was cytotoxic; also recorded: non‐toxic | 44% | 44% | 19%
